According to patent US20240368566A1, “PYK2-DERIVED PEPTIDES FOR INHIBITING INVADOPODIA-MEDIATED CANCER METASTASIS” (BAR-ILAN UNIVERSITY, priority 2023, published 2024):

Legend:
Assay type in all cases: cell-based, human
MDA-MB-231 cells [1] = experiment: 2D single-cell random migration assay; details: all concentrations; 12 hours; compared to control peptide; data not shown
Experimental: The 2D single-cell random migration assay was performed as previously described in Genna et al. Pyk2 and FAK differentially regulate invadopodia formation and function in breast cancer cells. J Cell Biol 2018; 217: 375-395. In brief, 6-well microtiter plates were coated with 10 μg/ml fibronectin and blocked with 1% denatured BSA. Peptide pre-treated cells were plated at 20,000 cells/well in DMEM/10% FBS containing peptides and allowed to adhere for 12-16 h. Plates were placed in a 37° C. heated chamber, and images were collected using the IncuCyte® Zoom platform (Essen Bioscience, Ann Arbor, MI, USA; 20×, NA 0.60, air objective). Phase images were collected every one hour for a total of 12 h using the IncuCyte® acquisition software. Trajectory plots, accumulated distance (total cell path length), Euclidean distance (the shortest distance between the starting point and endpoint of migration), and velocity were calculated using the chemotaxis and migration tool (ibidi GMBH, Grafelfing, Germany).

cortactin tyrosine Y421 = experiment: Immunofluorescence analysis of cortactin tyrosine phosphorylation at invadopodium precursors; details: EGF stimulation 3 min; all concentrations (0.1, 1, 5 μM)
Experimental: Twenty-four hours before each experiment, cells were plated on fibronectin/gelatin unlabeled matrix in the presence of a Pyk2-PRR or control peptides at 0.1, 1, and 5 μM concentration and allowed to attach for eight hours. Cells were then starved in DMEM/0.5% FBS for 16 h in the presence of peptides and stimulated with 2.5 nM EGF for 3 min or left un-stimulated (0 min EGF). Cells were fixed and stained with mouse phospho-specific cortactin antibody (pY421). To image invadopodia Z-plane, focus was on the ventral surface of the cell where the leading edge containing cortactin is focused. The pixels corresponding to invadopodia dots were then analyzed, not the whole cell. The intensity (mean grey value (mgv) minus background) of cortactin-TagRFP and pY421-cortactin at invadopodium precursors was quantified. The pY421-cortactin/cortactin-TagRFP ratio was calculated as a measure of tyrosine-phosphorylated cortactin at cortactin-rich puncta. Data were normalized to resting cells (0 min EGF) and presented as the relative fold change in cortactin tyrosine phosphorylation.

MDA-MB-231 cells [2] = experiment: Barbed end formation assay; details: EGF stimulation; all concentrations
Experimental: The barbed end assay was performed using biotin-conjugated actin as described in Genna et al., 2018 (supra). In brief, 24 h before each experiment, cells were plated on fibronectin/gelatin unlabeled matrix in the presence of Pyk2-PRR or control peptides at 0.1, 1, or 5 μM concentration and allowed to attach for 8 h. Cells were starved for 16 h in the presence of the peptides and then stimulated with 2.5 nM EGF and permeabilized with a permeabilization buffer (20 mM Hepes, pH 7.5, 138 mM KCl, 4 mM MgCl2, 3 mM EGTA, 0.2 mg/ml saponin, 1 mM ATP, and 1% BSA) containing 0.4 μM biotin-conjugated muscle actin (AB07) (Cytoskeleton Inc., Denver, CO, USA) for 1 min at 37° C. Cells were fixed in 3.7% paraformaldehyde for 5 min, blocked in PBS containing 1% FBS, 1% BSA, and 3 μM un-labeled phalloidin (Molecular Probes, P3457), then labeled with FITC anti-biotin (200-092-211) (Jackson ImmunoResearch Laboratories, West Grove, PA, USA) to visualize barbed ends, and with rhodamine-phalloidin (R415) (Molecular Probes, Eugene, OR, USA) and Arp2 to identify regions of cells rich in invadopodia. The barbed end intensity at invadopodia-rich regions was quantified by measuring mgv at invadopodia-rich areas minus mgv of the background. Data were normalized to the control condition for each experiment.

With C[C@H](NC(=O)[C@@H](N)[C@@H](C)O)C(=O)N[C@@H](Cc1ccccc1)C(=O)N[C@@H](CCC(N)=O)C(=O)N[C@@H](CCC(=O)O)C(=O)N1CCC[C@H]1C(=O)N1CCC[C@H]1C(=O)N1CCC[C@H]1C(=O)N[C@@H](CCCCN)C(=O)N1CCC[C@H]1C(=O)N[C@@H](CO)C(=O)N[C@@H](CCCNC(=N)N)C(=O)N1CCC[C@H]1C(=O)N[C@@H](CCCCN)C(=O)N[C@@H](Cc1ccc(O)cc1)C(=O)N[C@@H](CCCNC(=N)N)C(=O)N1CCC[C@H]1C(=O)N1CCC[C@H]1C(=O)N1CCC[C@H]1C(=O)O [Pyk2-PRR2, TAFQEPPPKPSRPKYRPPP] the “2D motility (accumulated and Euclidean distances, velocity)” value (MDA-MB-231 cells [1]) was “reduced 2D motility”, the “cortactin Y421 phosphorylation” value (cortactin tyrosine Y421) was “completely abolished” and the “generation of free actin barbed ends at invadopodia” value (MDA-MB-231 cells [2]) was “completely disrupted”.
